Row | SMILES | melting point [°C]
1 | Nc1ncnc2c1c(-c1ccc(Oc3ccccc3)cc1)nn2C1CCC2(CC1)OCCO2 | 200 to 202.5
2 | Nc1ncnc2c1c(-c1ccc(Oc3ccccc3)cc1)nn2C1CCOCC1 | 187 to 187.5
3 | Nc1ncnc2c1c(-c1ccc(Oc3ccccc3)cc1)nn2[C@H]1CC[C@@H](N2CCNCC2)CC1.O=C(O)/C=C\C(=O)O.O=C(O)/C=C\C(=O)O.O=C(O)/C=C\C(=O)O | 173 to 175
4 | Nc1ncnc2c1c(-c1ccc(Oc3ccccc3)cc1)nn2[C@H]1CC[C@H](N2CCNCC2)CC1.O=C(O)/C=C\C(=O)O.O=C(O)/C=C\C(=O)O.O=C(O)/C=C\C(=O)O | 153 to 155

From US6921763B2, “Pyrazolopyrimidines as therapeutic agents” (Abbott Laboratories, priority 1999, dated 2005)
